Assays:
[1] = cited from earlier work
[2] = system: transition rate constant from G1 to cycling for HSPCs; assay: Semi-mechanistic multi-compartment PK/PD model of hematopoiesis; parameters: species or system mouse, rat, and dog; conditions: conservative modification of literature estimate; elimination rate constant 1/h
Description: Owing to the invasive nature of the PD marker collection (i.e. bone marrow aspiration), a semi-mechanistic PK/PD model based on animal PK/PD data and human PK data was developed to guide the selection of an optimal dose level for bone marrow aspiration in humans during dose escalation in the Phase I first-in-human study. The model was constructed using PK data from four species (mouse, rat, dog, and human) and PD data from three species (mouse, rat, and dog; Online Resources 1 and 2).
The PK/multi-compartment PD model was based on a myelosuppression model previously published by Friberg et al., with modifications. […] In the model used in the current study, stem cells and progenitor cells were separated into two compartments, with experimental data measured for each compartment. […] Another important deviation from the Friberg model was the mechanism postulated for the homeostasis of the […] (PMNs). We postulated that the feedback mechanism has a set point target and that deviations from that target would accelerate (in the case of too few PMNs) or decelerate (in the case of too many PMNs) the transition of G1-phase cells to S-phase cells in the stem cell population.
The model was constructed in two stages. First, preclinical PK data (e.g. doses, routes, and schedule of administration, observed concentrations) were compiled and modeled by allometric scaling. A sequential PK/PD modeling approach (population PK parameters and data approach) was then employed in which a semi-mechanistic PD model with various physiological compartments was created, and specific assumptions entered (Online Resource 3). Traditional forward addition/backward elimination was used for PK modeling. […] Many parameters in this complex model could not be estimated and were fixed either to the literature values or values selected on the basis of discussions with domain experts and sensitivity analysis. In preclinical animal models, the PD analysis modeled bone marrow cells positive for 5′-ethynyl-2′-deoxyuridine (EdU) and peripheral neutrophil counts simultaneously. […]

pharmacologic activity half-life of 5-FU [2]: 42 min
SMILES: O=c1[nH]cc(F)c(=O)[nH]1 [5-FU, 5-fluorouracil, reference compound]
half-life of 5-FU, literature estimate [1]: 8 to 20 min

— paper PMC8026479 (Cancer Chemotherapy and Pharmacology, 2021)
